From patent US12691096B2, “Drug-controlled systems and uses thereof” (TRUSTEES OF BOSTON UNIVERSITY, priority 2020, dated 2026)

How the values were obtained:
[1] = biological target: T1, dNS3 (Hepatitis C virus genotype 1b, UniProt P26663, A1092G/F1173S/K1113A/P1112Q/S1165A); type: cell-based, hepatitis C virus (HCV); details: dNS3-NLuc and CLuc-PMED; HEK293FT lysates; drug added at time of transfection, 48 hours
T1 construct: expressed in transfected cells; host or cells: HEK293FT (read in lysate)
Experimental: To test this, permutations of dNS3, NS3wT and each peptide variant were fused to split fragments of Renilla luciferase (FIG. 2A).
(§1) Luciferase assay. HEK293FT cells were transfected with split luciferase constructs. In the case of drug pretreatment for dose curve experiments, drug was added at the indicated concentration at the time of transfection. Two days later, the transfected cells were lysed with 1× Ex Luciferase Assay Buffer using the Nano-Glo® Dual-Luciferase® Reporter Assay System (Promega). Immediately after, the samples were treated with an additional volume of 1× Ex Luciferase Assay Buffer with the indicated concentration of drug.
(§2) The samples were then read with a plate reader once per minute measuring luminescence with 500 millisecond exposure time. […] For kinetics analysis, linear regression analysis was performed on the untreated samples and used to normalize the data for the treated samples.

[2] = biological target: wild-type NS3 (Hepatitis C virus genotype 1b, UniProt P26663, A1092G/F1173S/K1113A/P1112Q); type: cell-based, hepatitis C virus (HCV); details: NS3WT-NLuc and CLuc-PMED; compared with dNS3
Experimental: as §1, §2

[3] = biological target: NS3(TI) with S139A mutation (Hepatitis C virus genotype 1b, UniProt P26663, D1194Y/F1069L/Q1106K/S1148R/S1165A); type: cell-based, hepatitis C virus (HCV); details: among the three drugs tested (grazoprevir, asunaprevir, telaprevir)
Source text: (§3) To accomplish this, it was sought to make orthogonal inducible Cre recombinases.
(§4) For Cre recombinase control in mammalian cells, live cells were gated in the same manner as above and gated for transfection by either a co-transfection marker of pmiRFP670-N1 or inter-plasmatic constitutive expression of iRFP670 under a separate constitutive promoter. Cells were further deemed as GFP positive if their fluorescence intensity was greater than or equal to the top 1% of non-transfected cells. Baseline activation of GFP positive cells was then subtracted using transfection marker only cells as baseline for all measurements.

[4] = biological target: telaprevir inducible (TI) NS3 (Hepatitis C virus genotype 1b, UniProt P26663, D1194Y/F1069L/Q1106K/S1148R); type: cell-based, hepatitis C virus (HCV); details: telaprevir (10 pM); flow cytometry 48 hours post-drug addition
Source text: as §3, §4

[5] = biological target: dNS3-Cre-PHI (Hepatitis C virus genotype 1b, UniProt P26663, A1092G/F1173S/K1113A/P1112Q/S1165A); details: catalytic NS3 S139A mutation (dNS3)
Source text: as §4

[6] = biological target: T1, dNS3; type: biochemical, hepatitis C virus (HCV); details: saturating drug concentrations; 3 pM of each drug added at time of lysis
Experimental: as §1, §2

T1 sequence (P26663 1027-1206 A1092G/P1112Q/K1113A/S1165A/F1173S): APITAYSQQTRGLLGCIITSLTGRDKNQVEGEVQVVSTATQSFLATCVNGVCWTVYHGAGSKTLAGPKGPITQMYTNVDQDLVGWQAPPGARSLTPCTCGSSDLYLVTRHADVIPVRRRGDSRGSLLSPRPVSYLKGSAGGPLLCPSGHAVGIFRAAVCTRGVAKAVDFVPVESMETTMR
dNS3-Cre-PHI, sequence (P26663 1027-1206 A1092G/P1112Q/K1113A/S1165A/F1173S): as above
NS3(TI) with S139A mutation, sequence (P26663 1027-1206 F1069L/A1092G/Q1106K/P1112Q/K1113A/S1148R/S1165A/F1173S/D1194Y): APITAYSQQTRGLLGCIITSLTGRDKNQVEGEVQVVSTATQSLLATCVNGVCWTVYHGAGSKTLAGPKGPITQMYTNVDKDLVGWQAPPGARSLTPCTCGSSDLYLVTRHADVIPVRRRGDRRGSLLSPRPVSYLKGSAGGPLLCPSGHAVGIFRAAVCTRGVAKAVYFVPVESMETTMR
telaprevir inducible (TI) NS3, sequence (P26663 1027-1206 F1069L/A1092G/Q1106K/P1112Q/K1113A/S1148R/F1173S/D1194Y): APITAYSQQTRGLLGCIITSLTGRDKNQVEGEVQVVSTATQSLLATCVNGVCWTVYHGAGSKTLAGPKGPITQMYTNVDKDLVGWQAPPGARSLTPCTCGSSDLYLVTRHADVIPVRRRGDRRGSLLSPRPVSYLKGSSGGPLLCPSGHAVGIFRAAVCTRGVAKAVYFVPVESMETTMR
wild-type NS3, sequence (P26663 1027-1206 A1092G/P1112Q/K1113A/F1173S): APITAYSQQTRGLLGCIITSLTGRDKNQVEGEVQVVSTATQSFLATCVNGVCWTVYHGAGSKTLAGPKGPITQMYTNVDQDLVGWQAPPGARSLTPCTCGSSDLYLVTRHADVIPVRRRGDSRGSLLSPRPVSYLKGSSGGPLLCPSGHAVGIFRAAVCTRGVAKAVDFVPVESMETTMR

Structure (SMILES) | Luciferase activity, dose response [1] | Luciferase activity, dose response with wild-type NS3 [2] | Drug sensitivity of NS3(TI) Cre with NS3 S139A mutation [3] | Induction of Cre recombination, telaprevir inducible (TI) construct [4] | Effect of NS3 S139A mutation alone on drug induction of Cre [5] | Dissociation of dNS3-PMED complexes (temporal turn-off) [6]
CC(C)(C)OC(=O)N[C@H]1CCCCC/C=C\[C@@H]2C[C@@]2(C(=O)NS(=O)(=O)C2CC2)NC(=O)[C@@H]2C[C@@H](OC(=O)N3Cc4cccc(F)c4C3)CN2C1=O [danoprevir, Danoprevir] | inhibit luciferase activity in a dose dependent manner | – | – | – | – | –
CCC[C@H](NC(=O)[C@@H]1[C@H]2CCC[C@H]2CN1C(=O)[C@@H](NC(=O)[C@@H](NC(=O)c1cnccn1)C1CCCCC1)C(C)(C)C)C(=O)C(=O)NC1CC1 [telaprevir] | significant resistance | effect is reverted | ablates telaprevir sensitivity | strongly induced | reduce telaprevir sensitivity | did not dissociate dNS3-PMD complexes well
